For test [1], the system named is cyclin D1. Description: RT-PCR of cyclin D1 mRNA in cancer cells. The class given is cell-based, human.
The subject of test [2] is cyclin D1 promoter. Description: Cyclin D1 promoter activity (luciferase) assay. It is filed as cell-based, human. As to conditions: PC3 cells. The procedure: FIGS. 6A-6B. Mahanine regulates the transcriptional activity of cyclin D1 and RASSF1A siRNA prevents mahanine-induced repression of cyclin D1 transcriptional activity. FIG. 6A: PC3 cells were transfected with 200 ng of full-length cyclin D1 promoter luciferase plasmids (−1745cyclin D1-Luc) or basic luciferase (PA3-Luc) plasmids and 10 ng of Renilla luciferase (pRL-TK-Luc) plasmids. Twenty-four hours after transfection cells were treated with 0, 1 and 2 μg/ml mahanine for 48 hours in normal growth media. FIG. 6B: PC3 cells were transfected with 200 ng of full-length cyclin D1 promoter luciferase plasmids or basic luciferase plasmids and 10 ng of Renilla luciferase (pRL-TK-Luc) plasmids with 200 ng of RASSF1A or RASSF1A siRNA with or without 2 μg/ml mahanine for 48 hours in normal growth media. After treatment, cells were harvested, and luciferase assays were performed. Relative cyclin D1 promoter activity was determined after normalization with Renilla luciferase activity. […]
Cyclin D1 promoter activity assay: PC3 cells were transfected with 200 ng of cyclin D1 promoter-luciferase (−1745-cyclin D1-Luc) (35) construct using GeneJammer transfection reagent (Stratagene, La Jolla, Calif.). […] After 48 hours, luciferase activity was measured in cell lysates in a microplate luminometer using the Dual Luciferase Assay kit (Promega, Madison, Wis.) according to the manufacturer's protocol. […]

The subject of test [3] is PC3 cells. Description: Flow cytometric cell cycle analysis, PC3. Conditions: 3 days. It is filed as cell-based, human. On the procedure: FIG. 4A-4B. Mahanine arrests prostate cancer cells at G0/G1 phase of cell cycle. To determine if down-regulation of cyclin D1 by mahanine treatments affect cell cycle, PC3 4(A) and LNCaP 4(B) cells were treated with 0, 1 and 2 μg/ml mahanine for 3 days. After treatment, flow cytometric analyses were performed. The percentage of cells in the G0/G1, S and G2/M-phase of the cell cycle were shown on right. FACS analysis of PC3 and LNCaP prostate cancer cells with vehicle or 2 μg/ml mahanine are shown in the left panel. Values are the mean from two independent experiments in duplicates.
Since cyclin D1 regulates cell cycle progression at the G0/G1 phase, Aplicants examined the cell cycle profile of PC3 and LNCaP cells in the presence of various concentrations of mahanine.

The subject of test [4] is cyclin D1. The experiment in a line: Immunofluorescence staining of cyclin D1 localization. It is filed as cell-based, human. As to conditions: PC3 cells, 2 μg/ml, 2 days. On the procedure: FIGS. 3A-3C. Mahanine down-regulates cyclin D1 protein in prostate cancer cells. FIG. 3A and FIG. 3B: Western blots showing cyclin D1 protein levels in PC3 (A) and LNCaP (B) cells treated with 0, 1, 2 and 3 μg/ml mahanine for 3 days. Protein lysates (50 μg) from PC3 and LNCaP cells were resolved on 12% SDS-PAGE, and immunoblots were probed with antibodies to cyclin D1. All immunoblots were re-probed with β-actin antibodies to ensure equal loading. Representative photographs from an experiment that was repeated thrice. Quantitative analyses of relative levels of cyclin D1 proteins are shown on the right panels. […] FIG. 3C: PC3 cells were plated on chamber slides and treated with or without 2 μg/ml mahanine for 2 days. Cells were then fixed in methanol, incubated with cyclin D1 antibody overnight, Alexi Fluor-conjugated secondary antibodies for 1 hour and counter stained with propidium iodide (PI). Slides were then mounted and examined using a fluorescence microscope. Photographs were taken at the same magnification (×20) and then transported to Photoshop. Representative photographs from an experiment that was repeated twice.
Immunofluorescence staining: PC3 cells were plated onto chamber slides and treated with vehicle or mahanine (2 μg/ml) for 2 days. The cells were fixed in methanol, air-dried, and re-hydrated with PBS. […]

In test [5] the test system is caspase-3. As to conditions: PC3 cells; cited from earlier work.

The values that follow come from patent US20100130579A1, “CANCER THERAPY” (Georgetown University, priority 2006, published 2010).

Structures are written as SMILES.

Turning to `CC(C)=CCC[C@@]1(C)C=Cc2c(c(C)cc3c2[nH]c2cc(O)ccc23)O1` [mahanine], the “cyclin D1 expression (RT-PCR)” value in test [1] (PC3 cells, 1, 2 and 3 μg/ml, 3 days) is listed as “down-regulated the expression of cyclin D1 in PC3 cells in a dose-dependent manner”; in test [1] (epidermoid (A431), lung (A549), pancreatic (ASPC-1), colon (HT-29), breast (MCF7) and ovarian (SKOV-3) cancer cells, 2 and 3 μg/ml, 2 days), “down regulation of cyclin D1”. In addition, the “cyclin D1 promoter activity” value in test [2] (1 and 2 μg/ml mahanine, 48 hours, P<0.01) is given as “decreased cyclin D1 promoter activity in a dose-dependent manner”. The “cyclin D1 promoter activity relative to basic vector transfected cells” value in test [2] (full-length cyclin D1 promoter luciferase construct) is reported as “approximately 20 fold”. The “cells in S-phase” value in test [3] (1 μg/ml, vehicle 7.5%) is “decreased the S-phase”; in test [3] (2 μg/ml), “completely abolished”. For the same compound, the “cells in G0/G1-phase” value is recorded as “increased the G0/G1-phase” in test [3] (1 μg/ml, vehicle 26%) and “further increased” in test [3] (2 μg/ml). In test [4], the “nuclear localization of cyclin D1” value is listed as “reduced and/or prevented the nuclear localization”. Besides, the “caspase-3 cleavage and activation” value in test [5] is “greatly increased caspase-3 cleavage and activation”.
